Measurements from ChEMBL document CHEMBL3885861, “Open TG-GATES”.

Organism: Rattus norvegicus
Assay: Open TG-GATES - Regimen: Daily Repeat
Type: toxicity, organism-based, Sprague-Dawley
Parameters: regimen Daily Repeat, gender Male, age 6 weeks
Details: in vivo, po, 300 mg/kg, route gavage, dose level High; for APTT / Bas / Eos / Fbg / Hb / Ht / Lym / MCH / MCHC / MCV / Mono / Neu / PT / Plat / RBC / Ret / WBC: tissue Blood; for KIDNEY_L / KIDNEY_R / KIDNEY_TOTAL: tissue Kidney; for LIVER: tissue Liver; for A/G / ALP / ALT / AST / BUN / CRE / Ca / Cl / DBIL / GLC / IP / K / LDH / Na / PL / RALB / TBIL / TC / TG / TP / gamma-GTP: tissue Plasma

CCOC(=O)C(C)(C)Oc1ccc(Cl)cc1 [CLOFIBRATE]
TERMINAL_BW (72 h, time 3 day): 242 g
APTT (72 h, time 3 day): 20.5 s
Bas (72 h, time 3 day): 0%
Eos (72 h, time 3 day): 1%
Fbg (72 h, time 3 day): 199.2 mg/dL
Hb (72 h, time 3 day): 13.2 g/dL
Ht (72 h, time 3 day): 37.7%
Lym (72 h, time 3 day): 73.8%
MCH (72 h, time 3 day): 21 pg
MCHC (72 h, time 3 day): 34.9%
MCV (72 h, time 3 day): 60.3 fL
Mono (72 h, time 3 day): 3.2%
Neu (72 h, time 3 day): 21.8%
PT (72 h, time 3 day): 12.3 s
Plat (72 h, time 3 day): 125.3 x10_4/uL
RBC (72 h, time 3 day): 625.4 x10_4/ul
Ret (72 h, time 3 day): 3.9%
WBC (72 h, time 3 day): 91.3 x10_2/uL
KIDNEY_L (72 h, time 3 day): 1.1 g
KIDNEY_R (72 h, time 3 day): 1.1 g
KIDNEY_TOTAL (72 h, time 3 day): 2.2 g
LIVER (72 h, time 3 day): 14.9 g
A/G (72 h, time 3 day): 1.9
ALP (72 h, time 3 day): 928.8 IU/L
ALT (72 h, time 3 day): 42 IU/L
AST (72 h, time 3 day): 70.2 IU/L
BUN (72 h, time 3 day): 14.2 mg/dL
CRE (72 h, time 3 day): 0.4 mg/dL
Ca (72 h, time 3 day): 10.6 mg/dL
Cl (72 h, time 3 day): 101.8 meq/L
DBIL (72 h, time 3 day): 0.06 mg/dL
GLC (72 h, time 3 day): 200.4 mg/dL
IP (72 h, time 3 day): 5.9 mg/dL
K (72 h, time 3 day): 3.9 meq/L
LDH (72 h, time 3 day): 220.2 IU/L
Na (72 h, time 3 day): 140.6 meq/L
PL (72 h, time 3 day): 102.2 mg/dL
RALB (72 h, time 3 day): 3.5 g/dL
TBIL (72 h, time 3 day): 0.1 mg/dL
TC (72 h, time 3 day): 43.6 mg/dL
TG (72 h, time 3 day): 46.6 mg/dL
TP (72 h, time 3 day): 5.3 g/dL
gamma-GTP (72 h, time 3 day): 0.8 IU/L
TERMINAL_BW ([…], time 7 day): 267.7 g
TERMINAL_BW ([…], time 14 day): 303.4 g
TERMINAL_BW ([…], time 28 day): 368.7 g
APTT ([…], time 7 day): 21.4 s
Bas ([…], time 7 day): 0%
Eos ([…], time 7 day): 0.6%
Fbg ([…], time 7 day): 212.8 mg/dL
Hb ([…], time 7 day): 13.3 g/dL
Ht ([…], time 7 day): 38.9%
Lym ([…], time 7 day): 81.4%
MCH ([…], time 7 day): 20.9 pg
MCHC ([…], time 7 day): 34.3%
MCV ([…], time 7 day): 61.1 fL
Mono ([…], time 7 day): 3.2%
Neu ([…], time 7 day): 14.4%
PT ([…], time 7 day): 12.3 s
Plat ([…], time 7 day): 132.7 x10_4/uL
RBC ([…], time 7 day): 639.6 x10_4/ul
Ret ([…], time 7 day): 5.1%
WBC ([…], time 7 day): 129.1 x10_2/uL
APTT ([…], time 14 day): 21.9 s
Bas ([…], time 14 day): 0%
Eos ([…], time 14 day): 0.6%
Fbg ([…], time 14 day): 187.4 mg/dL
Hb ([…], time 14 day): 13.6 g/dL
Ht ([…], time 14 day): 39.6%
Lym ([…], time 14 day): 78.8%
MCH ([…], time 14 day): 19.9 pg
MCHC ([…], time 14 day): 34.4%
MCV ([…], time 14 day): 57.8 fL
Mono ([…], time 14 day): 3.4%
Neu ([…], time 14 day): 16.8%
PT ([…], time 14 day): 12.5 s
Plat ([…], time 14 day): 115.9 x10_4/uL
RBC ([…], time 14 day): 684.8 x10_4/ul
Ret ([…], time 14 day): 3.9%
WBC ([…], time 14 day): 125.1 x10_2/uL
APTT ([…], time 28 day): 22 s
Bas ([…], time 28 day): 0%
Eos ([…], time 28 day): 1%
Fbg ([…], time 28 day): 187.6 mg/dL
Hb ([…], time 28 day): 14.6 g/dL
Ht ([…], time 28 day): 41.5%
Lym ([…], time 28 day): 80.2%
MCH ([…], time 28 day): 19.1 pg
MCHC ([…], time 28 day): 35.1%
MCV ([…], time 28 day): 54.4 fL
Mono ([…], time 28 day): 3.4%
Neu ([…], time 28 day): 15.2%
PT ([…], time 28 day): 12.3 s
Plat ([…], time 28 day): 109.1 x10_4/uL
RBC ([…], time 28 day): 762.4 x10_4/ul
Ret ([…], time 28 day): 2%
WBC ([…], time 28 day): 121.5 x10_2/uL
KIDNEY_L ([…], time 7 day): 1.1 g
KIDNEY_R ([…], time 7 day): 1.2 g
KIDNEY_TOTAL ([…], time 7 day): 2.3 g
KIDNEY_L ([…], time 14 day): 1.3 g
KIDNEY_R ([…], time 14 day): 1.3 g
KIDNEY_TOTAL ([…], time 14 day): 2.6 g
KIDNEY_L ([…], time 28 day): 1.5 g
KIDNEY_R ([…], time 28 day): 1.6 g
KIDNEY_TOTAL ([…], time 28 day): 3.1 g
LIVER ([…], time 7 day): 18 g
LIVER ([…], time 14 day): 19.3 g
LIVER ([…], time 28 day): 21.8 g
A/G ([…], time 7 day): 2.1
ALP ([…], time 7 day): 1006.8 IU/L
ALT ([…], time 7 day): 31.4 IU/L
AST ([…], time 7 day): 62.8 IU/L
BUN ([…], time 7 day): 17.2 mg/dL
CRE ([…], time 7 day): 0.4 mg/dL
Ca ([…], time 7 day): 10.7 mg/dL
Cl ([…], time 7 day): 102 meq/L
DBIL ([…], time 7 day): 0.058 mg/dL
GLC ([…], time 7 day): 214.2 mg/dL
IP ([…], time 7 day): 7.4 mg/dL
K ([…], time 7 day): 3.5 meq/L
LDH ([…], time 7 day): 285 IU/L
Na ([…], time 7 day): 141.2 meq/L
PL ([…], time 7 day): 92.2 mg/dL
RALB ([…], time 7 day): 4 g/dL
TBIL ([…], time 7 day): 0.1 mg/dL
TC ([…], time 7 day): 37.6 mg/dL
TG ([…], time 7 day): 44.2 mg/dL
TP ([…], time 7 day): 5.9 g/dL
gamma-GTP ([…], time 7 day): 1 IU/L
A/G ([…], time 14 day): 2.2
ALP ([…], time 14 day): 750.6 IU/L
ALT ([…], time 14 day): 41.8 IU/L
AST ([…], time 14 day): 59.6 IU/L
BUN ([…], time 14 day): 17.6 mg/dL
CRE ([…], time 14 day): 0.4 mg/dL
Ca ([…], time 14 day): 10.5 mg/dL
Cl ([…], time 14 day): 101.4 meq/L
DBIL ([…], time 14 day): 0.062 mg/dL
GLC ([…], time 14 day): 228.2 mg/dL
IP ([…], time 14 day): 6.1 mg/dL
K ([…], time 14 day): 3.8 meq/L
LDH ([…], time 14 day): 172 IU/L
Na ([…], time 14 day): 140.4 meq/L
PL ([…], time 14 day): 113.2 mg/dL
RALB ([…], time 14 day): 4 g/dL
TBIL ([…], time 14 day): 0.1 mg/dL
TC ([…], time 14 day): 44 mg/dL
TG ([…], time 14 day): 46.4 mg/dL
TP ([…], time 14 day): 5.9 g/dL
gamma-GTP ([…], time 14 day): 0.8 IU/L
A/G ([…], time 28 day): 1.9
ALP ([…], time 28 day): 787 IU/L
ALT ([…], time 28 day): 43.4 IU/L
AST ([…], time 28 day): 70.8 IU/L
BUN ([…], time 28 day): 15.4 mg/dL
CRE ([…], time 28 day): 0.4 mg/dL
Ca ([…], time 28 day): 10.2 mg/dL
Cl ([…], time 28 day): 101.8 meq/L
DBIL ([…], time 28 day): 0.068 mg/dL
GLC ([…], time 28 day): 190 mg/dL
IP ([…], time 28 day): 5.1 mg/dL
K ([…], time 28 day): 3.6 meq/L
LDH ([…], time 28 day): 208.6 IU/L
Na ([…], time 28 day): 140.4 meq/L
PL ([…], time 28 day): 120.6 mg/dL
RALB ([…], time 28 day): 4 g/dL
TBIL ([…], time 28 day): 0.1 mg/dL
TC ([…], time 28 day): 46 mg/dL
TG ([…], time 28 day): 47.6 mg/dL
TP ([…], time 28 day): 6.1 g/dL
gamma-GTP ([…], time 28 day): 0.6 IU/L
